Data from PubChem BioAssay AID2060883 (Molecular Pharmacology Branch, DTP, NCI, 2025).

Tested on: 843782-103-R-J1-PDC complex spheroid viability
Experiment: Anticancer human tumor 843782-103-R-J1-PDC patient-derived lung adenocarcinoma cell line growth inhibition [RAS]
Conditions: for viability, T/C: stronger effect = lower value
In short: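 Tumour cells grown as complex spheroids with HUVEC endothelial cells and mesenchymal stem cells, treated with RAS pathway inhibitor combinations. Each agent spans half-log steps from near clinical Cmax, or 10 microM where Cmax is unknown.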
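Also: viability read after seven days of compound exposure.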

SMILES: CC(C)n1nc(-c2ccc3oc(N)nc3c2)c2c(N)ncnc21 + CCn1c(-c2cc(N3CCN(C)CC3)cnc2C(C)OC)c2c3cc(ccc31)-c1csc(n1)CC(NC(=O)C1CC1C)C(=O)N1CCCC(N1)C(=O)OCC(C)(C)C2
- IC50 (curve of first compound, second compound 0.000949 µM): 5.34 nM
- IC50 (curve of first compound, second compound 0.003 µM): 3.42 nM
- IC50 (curve of first compound, second compound 0.00949 µM): < 0.316 nM
- IC50 (curve of first compound, second compound 0.03 µM): < 0.316 nM
- IC50 (curve of first compound, second compound 0.0949 µM): < 0.316 nM
- IC50 (curve of first compound, second compound 0.3 µM): < 0.316 nM
- viability, T/C (second compound 0.000949 µM, first compound 0.000316 µM): 73%
- viability, T/C (second compound 0.000949 µM, first compound 0.001 µM): 70.4%
- viability, T/C (second compound 0.000949 µM, first compound 0.00316 µM): 58.7%
- viability, T/C (second compound 0.000949 µM, first compound 0.01 µM): 38.6%
- viability, T/C (second compound 0.000949 µM, first compound 0.0316 µM): 24.8%
- viability, T/C (second compound 0.000949 µM, first compound 0.1 µM): 13.5%
- viability, T/C (second compound 0.003 µM, first compound 0.000316 µM): 49.6%
- viability, T/C (second compound 0.003 µM, first compound 0.001 µM): 57.5%
- viability, T/C (second compound 0.003 µM, first compound 0.00316 µM): 52.5%
- viability, T/C (second compound 0.003 µM, first compound 0.01 µM): 27.7%
- viability, T/C (second compound 0.003 µM, first compound 0.0316 µM): 19.7%
- viability, T/C (second compound 0.003 µM, first compound 0.1 µM): 11%
- viability, T/C (second compound 0.00949 µM, first compound 0.000316 µM): 36.5%
- viability, T/C (second compound 0.00949 µM, first compound 0.001 µM): 36.6%
- viability, T/C (second compound 0.00949 µM, first compound 0.00316 µM): 28.2%
- viability, T/C (second compound 0.00949 µM, first compound 0.01 µM): 19.7%
- viability, T/C (second compound 0.00949 µM, first compound 0.0316 µM): 11.6%
- viability, T/C (second compound 0.00949 µM, first compound 0.1 µM): 7.59%
- viability, T/C (second compound 0.03 µM, first compound 0.000316 µM): 22.3%
- viability, T/C (second compound 0.03 µM, first compound 0.001 µM): 19.4%
- viability, T/C (second compound 0.03 µM, first compound 0.00316 µM): 13.2%
- viability, T/C (second compound 0.03 µM, first compound 0.01 µM): 12.6%
- viability, T/C (second compound 0.03 µM, first compound 0.0316 µM): 7.81%
- viability, T/C (second compound 0.03 µM, first compound 0.1 µM): 4.67%
- viability, T/C (second compound 0.0949 µM, first compound 0.000316 µM): 15.6%
- viability, T/C (second compound 0.0949 µM, first compound 0.001 µM): 13.8%
- viability, T/C (second compound 0.0949 µM, first compound 0.00316 µM): 12.8%
- viability, T/C (second compound 0.0949 µM, first compound 0.01 µM): 10.3%
- viability, T/C (second compound 0.0949 µM, first compound 0.0316 µM): 7.44%
- viability, T/C (second compound 0.0949 µM, first compound 0.1 µM): 4.77%
- viability, T/C (second compound 0.3 µM, first compound 0.000316 µM): 13.9%
- viability, T/C (second compound 0.3 µM, first compound 0.001 µM): 13.4%
- viability, T/C (second compound 0.3 µM, first compound 0.00316 µM): 10.7%
- viability, T/C (second compound 0.3 µM, first compound 0.01 µM): 9.85%
- viability, T/C (second compound 0.3 µM, first compound 0.0316 µM): 6.87%
- viability, T/C (second compound 0.3 µM, first compound 0.1 µM): 3.78%

SMILES: Nc1ccn(C2OC(CO)C(O)C2(F)F)c(=O)n1 (configuration not stated)
- viability, T/C (compound 0.00316 µM): 107% [middle of 4 runs]
- viability, T/C (compound 0.01 µM): 101% [middle of 4 runs]
- viability, T/C (compound 0.1 µM): 3.52% [middle of 4 runs]
- viability, T/C (compound 0.316 µM): 2.19% [middle of 4 runs]
- viability, T/C (compound 1 µM): 2.92% [middle of 4 runs]
- IC50 (curve of compound): 34.1 nM [middle of 4 runs]

SMILES: CC(C)n1nc(-c2ccc3oc(N)nc3c2)c2c(N)ncnc21
- viability, T/C (compound 0.000316 µM): 108% [middle of 4 runs]
- viability, T/C (compound 0.001 µM): 94% [middle of 4 runs]
- viability, T/C (compound 0.00316 µM): 91.6% [middle of 4 runs]
- viability, T/C (compound 0.01 µM): 72.3% [middle of 4 runs]
- viability, T/C (compound 0.0316 µM): 48.1% [middle of 4 runs]
- viability, T/C (compound 0.1 µM): 28.8% [middle of 4 runs]
- IC50 (curve of compound): 31.2 nM [middle of 4 runs]

SMILES: C=CC(=O)N1CCN(c2nc(OCC3CCCN3C)nc3c(F)c(-c4nc(N)cc(C)c4C(F)(F)F)c(Cl)cc23)C(C)C1 (configuration not stated) + C#Cc1c(F)ccc2cc(O)cc(-c3ncc4c(N5CC6CCC(C5)N6)nc(OCC56CCCN5CC(F)C6)nc4c3F)c12
- IC50 (curve of first compound, second compound 0.0316 µM): > 1000 nM
- IC50 (curve of first compound, second compound 0.1 µM): > 1000 nM
- IC50 (curve of first compound, second compound 0.316 µM): > 1000 nM
- IC50 (curve of first compound, second compound 1 µM): > 1000 nM
- IC50 (curve of first compound, second compound 3.16 µM): > 1000 nM
- IC50 (curve of first compound, second compound 10 µM): < 3.16 nM
- viability, T/C (second compound 0.0316 µM, first compound 0.00316 µM): 89.9%
- viability, T/C (second compound 0.0316 µM, first compound 0.01 µM): 81.1%
- viability, T/C (second compound 0.0316 µM, first compound 0.0316 µM): 83.3%
- viability, T/C (second compound 0.0316 µM, first compound 0.1 µM): 76.3%
- viability, T/C (second compound 0.0316 µM, first compound 0.316 µM): 88.4%
- viability, T/C (second compound 0.0316 µM, first compound 1 µM): 79.5%
- viability, T/C (second compound 0.1 µM, first compound 0.00316 µM): 89.7%
- viability, T/C (second compound 0.1 µM, first compound 0.01 µM): 83.1%
- viability, T/C (second compound 0.1 µM, first compound 0.0316 µM): 74.4%
- viability, T/C (second compound 0.1 µM, first compound 0.1 µM): 78.1%
- viability, T/C (second compound 0.1 µM, first compound 0.316 µM): 69.8%
- viability, T/C (second compound 0.1 µM, first compound 1 µM): 80.6%
- viability, T/C (second compound 0.316 µM, first compound 0.00316 µM): 86.5%
- viability, T/C (second compound 0.316 µM, first compound 0.01 µM): 68.1%
- viability, T/C (second compound 0.316 µM, first compound 0.0316 µM): 74.8%
- viability, T/C (second compound 0.316 µM, first compound 0.1 µM): 78.8%
- viability, T/C (second compound 0.316 µM, first compound 0.316 µM): 77.4%
- viability, T/C (second compound 0.316 µM, first compound 1 µM): 76.1%
- viability, T/C (second compound 1 µM, first compound 0.00316 µM): 81%
- viability, T/C (second compound 1 µM, first compound 0.01 µM): 74.1%
- viability, T/C (second compound 1 µM, first compound 0.0316 µM): 79.3%
- viability, T/C (second compound 1 µM, first compound 0.1 µM): 69.3%
- viability, T/C (second compound 1 µM, first compound 0.316 µM): 65.8%
- viability, T/C (second compound 1 µM, first compound 1 µM): 68.5%
- viability, T/C (second compound 3.16 µM, first compound 0.00316 µM): 62.2%
- viability, T/C (second compound 3.16 µM, first compound 0.01 µM): 67.2%
- viability, T/C (second compound 3.16 µM, first compound 0.0316 µM): 70%
- viability, T/C (second compound 3.16 µM, first compound 0.1 µM): 64.3%
- viability, T/C (second compound 3.16 µM, first compound 0.316 µM): 60.1%
- viability, T/C (second compound 3.16 µM, first compound 1 µM): 64.5%
- viability, T/C (second compound 10 µM, first compound 0.00316 µM): 39.6%
- viability, T/C (second compound 10 µM, first compound 0.01 µM): 57%
- viability, T/C (second compound 10 µM, first compound 0.0316 µM): 44.8%
- viability, T/C (second compound 10 µM, first compound 0.1 µM): 49.7%
- viability, T/C (second compound 10 µM, first compound 0.316 µM): 40.5%
- viability, T/C (second compound 10 µM, first compound 1 µM): 40.5%
